Assay results as given in patent US7695930B2, “Method for the detection, identification and/or quantification of microoganisms with peptidase activity using phenoxazinone derivatives as enzyme substrates” (Biomerieux, priority 2003, dated 2010).

How the values were obtained:
[1] = test system: Staphylococcus aureus (NCTC 6571); experiment: Alanine peptidase detection, substrates with one to three amino acids (Example 15); assay type: cell-based; parameters: key to color of the colony: R=pink; RP=pale pink; I=colorless; conditions: 50 mg/l
[2] = test system: Staphylococcus epidermis (NCTC 11047); experiment: as above; assay type: cell-based; parameters: key to color of the colony: R=pink; RP=pale pink; I=colorless; conditions: 50 mg/l

Q: With “L-alanyl-9-aminobenzo[a]phenoxazin-5-one [Ala-ABP]” as the substance, how does the growth diameter ([1]; 24 h) read?
A: 0 mm

Q: What about the “color of the colony” value ([1]; 48 h) of the same substance?
A: I

Q: And the growth diameter ([1]; 48 h)?
A: 2 mm

Q: What about the growth diameter ([2]; 24 h) of the same substance?
A: 0 mm

Q: What about the growth diameter ([2]; 48 h) of the same substance?
A: 0 mm
